Values joined by “and” are separate entries in the source; they are usually repeats but may differ in a detail not shown here. Identical values can stand only once. Like-named read-outs stand apart in the source and are kept apart here.
Experiments:
[1] = target: wild type human I Ks channel (Kv7.1/KCNE1) (Homo sapiens, UniProt P51787); assay: Two-electrode voltage clamp of I Ks channel; assay type: cell-based; conditions: pH 9.0, mean ± SEM; for Max ΔV 0.5 (shift of voltage dependence of activation) / Max I/I 0 (relative increase in K+ current at 0 mV) / Max G max/G max0 (maximal conductance normalized to control): fitted maximum from dose response; for Max ΔV 0.5 (shift of voltage dependence of activation): G-V from tail currents
[2] = system: I Ks channel (coexpression of Kv7.1 and KCNE1); conditions: cited from earlier work; for Effect on the V 0.5 of the I Ks channel at pH 7.5: Kv7.1 co-expressed with KCNE1, pH 7.5
[3] = system: Kv7.1 channel; conditions: Kv7.1 without KCNE1; cited from earlier work
[4] = read-out: K m of ΔV 0.5, Hill fit of dose response
[5] = K m of ΔV 0.5, Hill fit of dose response

Sequence of wild type human I Ks channel (Kv7.1/KCNE1) (P51787 whole entry): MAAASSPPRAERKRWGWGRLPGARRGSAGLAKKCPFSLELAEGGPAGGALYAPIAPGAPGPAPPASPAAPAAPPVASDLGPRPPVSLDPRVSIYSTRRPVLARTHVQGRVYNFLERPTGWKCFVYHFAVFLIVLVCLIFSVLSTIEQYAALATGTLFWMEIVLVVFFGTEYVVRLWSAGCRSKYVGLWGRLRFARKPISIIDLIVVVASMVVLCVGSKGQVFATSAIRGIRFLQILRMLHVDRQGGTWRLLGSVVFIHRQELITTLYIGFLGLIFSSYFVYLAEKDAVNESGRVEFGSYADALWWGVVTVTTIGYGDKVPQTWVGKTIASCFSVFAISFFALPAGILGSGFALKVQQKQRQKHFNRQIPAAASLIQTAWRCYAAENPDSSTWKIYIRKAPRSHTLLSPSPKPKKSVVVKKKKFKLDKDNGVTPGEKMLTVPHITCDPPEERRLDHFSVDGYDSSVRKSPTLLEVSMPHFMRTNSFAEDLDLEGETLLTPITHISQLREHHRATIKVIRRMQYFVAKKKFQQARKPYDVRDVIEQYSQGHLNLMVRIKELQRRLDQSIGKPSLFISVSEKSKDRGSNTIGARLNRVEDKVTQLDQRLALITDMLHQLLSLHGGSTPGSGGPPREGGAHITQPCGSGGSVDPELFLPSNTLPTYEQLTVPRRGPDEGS

| Structure (SMILES) | Max ΔV 0.5 (shift of voltage dependence of activation) [1] | Max I/I 0 (relative increase in K+ current at 0 mV) [1] | Max G max/G max0 (maximal conductance normalized to control) [1] | EC50 [1, 4] | EC50 [1, 5] | EC50 ([1]; read-out: K m of G max, Hill fit of dose response) | Effect on the V 0.5 of the I Ks channel at pH 7.5 [2] | Effect on K+ current when Kv7.1 is co-expressed with KCNE1, pH 7.5 ([2]; pH 7.5) | EC50 ([1]; K m of G max, Hill fit of dose response) | Shift of the voltage dependence of activation (V 0.5) of the Kv7.1 channel [3] |
| --- | --- | --- | --- | --- | --- | --- | --- | --- | --- | --- |
| CCC=CCC=CCC=CCCCC(=O)O [14:3Δ5,8,11, Tetradecatrienoic acid (5,8,11)] | 0.80 ± 6.5 mV | 1.1 ± 0.15 | 0.84 ± 0.1 | – | – | – | – | – | – | – |
| CCC=CCC=CCC=CCCCCCC(=O)O [16:3Δ7,10,13, Hexadecatrienoic acid (7,10,13)] | −13.4 ± 0.6 mV | 2.1 ± 0.02 | 0.9 ± 0.2 | 7.2 ± 0.5 µM | – | – | – | – | – | – |
| CCCCC/C=C\C/C=C\CCCCCCCC(=O)O [18:2Δ9,12, Linoleic acid (9,12)] | −29.8 ± 1.7 mV | 3.6 ± 0.6 | 1.06 ± 0.02 | – | – | – | – | – | – | – |
| CC/C=C\C/C=C\C/C=C\C/C=C\C/C=C\CCCC(=O)O [20:5Δ5,8,11,14,17, Eicosapentaenoic acid (5,8,11,14,17)] | −25 ± 4.6 mV | 2.4 ± 0.05 | 1.0 ± 0.1 | – | 9.8 ± 4.4 µM | – | – | – | – | – |
| CCC=CCC=CCC=CCC=CCC=CCCCCCC(=O)O [22:5Δ7,10,13,16,19, Docosapentaenoic acid (7,10,13,16,19)] | −4 ± 0.13 mV | 1.6 ± 0.05 | 1.2 ± 0.01 | 11.1 ± 0.6 µM | – | 1.2 ± 1.7 µM | – | – | – | – |
| CC/C=C\C/C=C\C/C=C\C/C=C\C/C=C\C/C=C\CCC(=O)O [22:6Δ4,7,10,13,16,19, Docosahexaenoic acid (4,7,10,13,16,19)] | −20.2 ± 0.1 mV | 3.2 ± 0.1 and 3.2 ± 0.01 | 1.5 ± 0.2 | – | 3.1 ± 0.1 µM | – | no effect on the V 0.5 | abolished | 1.8 µM | to more negative voltages |
| CCCCC/C=C\C/C=C\C/C=C\C/C=C\CCCC(=O)NCCS(=O)(=O)O [N‐AT, N‐arachidonoyl taurine] | – | – | – | – | – | – | retain the ability to shift the voltage dependence | – | – | – |
